The target of assay [1] is T1, 11β-hsd-1 enzyme (Homo sapiens, UniProt P28845). Briefly: biochemical. The conditions noted are these: for inhibition: read-out: % Inh @ 0.1 mM; for inhibition at 0.1 µM: read-out: % Inh @ 0.1 μM. How it is done: Percentage of inhibition was determined in a 100 mM Triethanolamine buffer, pH 8.0, 200 mM NaCl, 0.02% n-dodecyl β-D-maltoside and 5 mM β-ME. A typical reaction was carried on a Corning® u-bottom 96-well plate and is described as follows: 11β-hsd-1 enzyme (5 nM, final concentration) was pre-incubated in the presence of the inhibitor and NADPH (500 μM, final concentration) for at least 30 minutes
T1 sequence (P28845 whole entry, species assumed): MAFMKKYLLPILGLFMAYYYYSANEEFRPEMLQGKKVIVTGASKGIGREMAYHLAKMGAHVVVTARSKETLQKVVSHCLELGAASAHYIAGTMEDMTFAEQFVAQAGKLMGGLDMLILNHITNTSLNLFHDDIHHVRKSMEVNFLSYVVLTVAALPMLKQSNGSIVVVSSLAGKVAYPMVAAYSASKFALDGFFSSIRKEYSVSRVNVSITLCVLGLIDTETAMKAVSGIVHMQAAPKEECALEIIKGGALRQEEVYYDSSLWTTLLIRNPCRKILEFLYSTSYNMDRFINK
in the assay buffer. When pre-incubation was completed, the reaction was initiated by adding the regenerating system (2 mM Glucose-6-Phosphate, 1U/mL Glucose-6-Phosphate dehydrogenase, and 6 mM MgCl2, all the concentration reported are final in the assay buffer), and 3H-cortisone (200 nM, final concentration). After 60 minutes, 60 μL of the assay mixture was transferred to a second 96-well plate and mixed with an equal volume of dimethylsulfoxide to stop the reaction. A 15 μL aliquot from the reaction mixture was loaded into a C-18 column (Polaris C18-A, 50×4.6 mm, 5 μ, 180 Angstrom from Varian) connected to an automated High-throughput Liquid Chromatography instrument developed by Cohesive Technologies Inc of Franklin, Mass., with a […] model 3 Radio-HPLC detector from IN/US of Tampa, Fla. The substrate and product peaks were separated by using an isocratic mixture of 43:57 methanol to water (v/v) at a flow rate of 1.0 mL/min.
Percent Inhibition was calculated based on the following equation: (1-(3H-Cortisol peak area in the […] of inhibitor)×100).

Assay [2] addresses T1, 11β-hsd-1 enzyme. Briefly: biochemical. As to the method: The 11β-hsd-1 assay was performed in a 100 mM Triethanolamine buffer pH 8.0, containing 200 mM NaCl, 0.02% n-dodecyl β-D-maltoside, 5% glycerol, 5 mM β-mercaptoethanol. A typical reaction for the determination of Kiapp values was carried at R.T. in a Corning® u-bottom 96-well plate and is described as follows: 11β-hsd-1 enzyme (5 nM, final concentration) was pre-incubated in the presence of the inhibitor and NADPH (500 μM, final concentration) for at least 30 minutes in the assay buffer. When pre-incubation was completed, the reaction was initiated by adding the regenerating system (2 mM Glucose-6-Phosphate, 1U/mL Glucose-6-Phosphate dehydrogenase, and 6 mM MgCl2, all the concentration reported are final in the assay buffer), and 3H-cortisone (200 nM, final concentration). After 60 minutes, 60 μL of the assay mixture was transferred to a second 96-well plate and mixed with an equal volume of dimethylsulfoxide to stop the reaction. A 15 μL aliquot from the reaction mixture was loaded into a C-18 column (Polaris C18-A, 50×4.6 mm, 5 μ, 180 Angstrom from Varian) connected to an automated High-throughput Liquid Chromatography instrument developed by Cohesive Technologies Inc, of Franklin, Mass. USA, with a β-RAM model 3 Radio-HPLC detector from IN/US, of Tampa, Fla. USA. The substrate and product peaks were separated by using an isocratic mixture of 43:57 methanol to water (v/v) at a flow rate of 1.0 mL/min.
The initial reaction velocities were measured by stopping the reaction at 60 min and by measuring the area of product formation in the absence and the presence of various concentrations of inhibitors. The Kiapp values were determined using the equation for tight-binding inhibitor developed by Morrison, J. F. (Morrison J. F. Biochim BiophysActa. 1969; 185: 269-86).
The radiolabeled [1,2-3H]-cortisone is commercially available from American Radiolabeled Chemicals Inc of St. Louis, Mo. USA. NADPH, Glucose-6-Phosphate, and Glucose-6-Phosphate dehydrogenase were purchased from Sigma®.
(Morrison J. F. Biochim Biophys Acta. 1969; 185: 269-86).

Like-named read-outs stand apart in the source and are kept apart here.

Turning to “4-(6-chloro-13-benzoxazol-2- yl)-N-quinolin-2-ylpiperazine- 1-sulfonamide [Example 167]”, the “% Inh @ 0.1 mM” value on 11β-hsd-1 enzyme [1] (Table 2, inhibitor 0.1 mM as printed) was found to be 100%. The Ki at 11β-hsd-1 enzyme [2] (read-out: Klapp, Table 2, 5 nM enzyme, 200 nM 3H-cortisone, 500 μM NADPH) worked out at 3.4 nM.

With `CCc1cccc(NS(=O)(=O)N2CC[C@@H]3CCCC[C@@H]3C2)n1` (racemic) [Example 120, (4aS*8aS*)-N-(6-ethylpyridin-2-yl)octahydro-isoquinoline-2(1H)-sulfonamide], the inhibition on 11β-hsd-1 enzyme [1] was found to be 100%. Moreover, the Ki on 11β-hsd-1 enzyme [2] turned out to be 13 nM.

Turning to `Cc1cc(C)nc(NS(=O)(=O)N2CCN(c3ccc(C(F)(F)F)cn3)CC2)c1` [Example 1, N-(4,6-dimethylpyridin-2-yl)-4-[5-(trifluoromethyl)pyridin-2-yl]piperazine-1-sufonamide], the inhibition at 0.1 µM on 11β-hsd-1 enzyme [1] was found to be 95.9%. For the same compound, at 11β-hsd-1 enzyme [2], the Ki came to 4.1 nM.

Regarding `CCc1cccc(NS(=O)(=O)N2CCN(c3ccc(C#N)cn3)CC2)n1` [Example 3, 4-(5-cyanopyridin-2-yl)-N-(6-ethylpyridin-2-yl)piperazine-1-sulfonamide], the inhibition at 0.1 µM on 11β-hsd-1 enzyme [1] was 88.5%. This compound yielded a Ki at 11β-hsd-1 enzyme [2] of 9 nM.

With `Cc1cccc(NS(=O)(=O)N2CCN(c3ccc(C(F)(F)F)cn3)CC2)n1` [Example 8], at 11β-hsd-1 enzyme [1], the inhibition at 0.1 µM worked out at 96.4%. For the same compound, on 11β-hsd-1 enzyme [2], the Ki turned out to be 2.1 nM.

Take `Cc1cc(C)nc(NS(=O)(=O)N2CCN(c3ccc(C#N)cn3)CC2)c1` [Example 9]: the inhibition at 0.1 µM on 11β-hsd-1 enzyme [1] is 86.5%. In addition, the Ki on 11β-hsd-1 enzyme [2] came out at 14 nM.

`Cc1cccc(NS(=O)(=O)N2CCc3ccc(S(C)(=O)=O)cc3CC2)n1` [Example 10]: the inhibition at 0.1 µM on 11β-hsd-1 enzyme [1] worked out at 79.9%. At 11β-hsd-1 enzyme [2], this compound came in with a Ki of 25.5 nM.

As to `CCc1cccc(NS(=O)(=O)N2CCN(Cc3c(F)cccc3F)CC(COC)C2)n1` (centres unmarked) [Example 141, 4-(26-difluorobenzyl)-N-(6-ethylpyridin-2-yl)-6-(methoxymethyl)-14-diazepane-1-sulfonamide], on 11β-hsd-1 enzyme [1], the inhibition was determined as 13.8%.

As to `CCc1cccc(NS(=O)(=O)N2CCN(C)CC(COCc3c(F)cccc3F)C2)n1` (centres unmarked) [Example 142, 6-{[(26-difluoro-benzyl)oxy]methyl)-N-(6-ethylpyridin-2-yl)-4-methyl-14-diazepane-1-sulfonamide], the inhibition at 11β-hsd-1 enzyme [1] was determined as 5.9%.

Consider `CCc1cccc(NS(=O)(=O)N2CCN(c3nc(C)cc(CC(C)C)n3)CC2)n1` [Example 143, N-(6-ethylpyridin-2-yl)-4-(4-isobutyl-6-methylpyrimidin-2-yl)piperazine-1-sulfonamide], for which, on 11β-hsd-1 enzyme [1], the inhibition amounted to 36.7%.

Take `CCc1cccc(NS(=O)(=O)N2CCN(c3ccc(C(=O)NC(C)C)cn3)CC2)n1` [Example 146, 6-(4-{[(6-ethylpyridin-2-yl)amino]sulfonyl)piperazin-1-yl)-N-isopropylnicotinamide]: the inhibition at 11β-hsd-1 enzyme [1] was determined as 30.4%.

Consider `CCc1cccc(NS(=O)(=O)N2CCN(c3ccc(C(=O)N4CCOCC4)cn3)CC2)n1` [Example 147, N-(6-ethylpyridin-2-yl)-4-[5-(morpholin-4-ylcarbonyl)pyridin-2-yl]piperazine-1-sulfonamide], for which the inhibition on 11β-hsd-1 enzyme [1] turned out to be 27.2%.

`Cc1cccc(NS(=O)(=O)N2CCN(c3nc4ncccc4o3)CC2)n1` [Example 152, N-(6-methylpyridin-2-yl)-4-[13]oxazolo[45-b]pyridin-2-ylpiperazine-1-sulfonamide]: at 11β-hsd-1 enzyme [1], the inhibition turned out to be 47.6%.

As for `O=S(=O)(Nc1ccc2ccccc2n1)N1CCN(c2cnccn2)CC1` [Example 158, 4-pyrazin-2-yl-N-quinolin-2-ylpiperazine-1-sulfonamide], the inhibition on 11β-hsd-1 enzyme [1] came out at 44.8%.

Regarding `O=S(=O)(Nc1ccc2ccccc2n1)N1CCN(c2ncccc2C(F)(F)F)CC1` [Example 159, N-quinolin-2-yl-4-[3-(trifluoromethyl)pyridin-2-yl]piperazine-1-sulfonamide], at 11β-hsd-1 enzyme [1], the inhibition amounted to 53.4%.

For the compound `O=S(=O)(Nc1ccc2ccccc2n1)N1CCCN(c2ncccn2)CC1` [Example 163, 4-pyrimidin-2-yl-N-quinolin-2-yl-14-diazepane-1-sulfonamide], the inhibition at 11β-hsd-1 enzyme [1] was found to be 10.5%.

Regarding `N#Cc1cccnc1N1CCCN(S(=O)(=O)Nc2ccc3ccccc3n2)CC1` [Example 168, 4-(3-cyanopyridin-2-yl)-N-quinolin-2-yl-14-diazepane-1-sulfonamide], at 11β-hsd-1 enzyme [1], the inhibition is 56.7%.

Regarding `COc1cc2c(nn1)CCN(S(=O)(=O)Nc1ccc3ccccc3n1)CC2` [Example 170, 3-methoxy-N-quinolin-2-yl-5689-tetrahydro-7H-pyridazino[34-d]azepine-7-sulfonamide], the inhibition on 11β-hsd-1 enzyme [1] turned out to be 21.2%.

Consider `CCc1cccc(NS(=O)(=O)N2CCCN(c3ncccn3)CC2)n1` [Example 172, N-(6-ethylpyridin-2-yl)-4-pyrimidin-2-yl-14-diazepane-1-sulfonamide], for which the inhibition at 11β-hsd-1 enzyme [1] was determined as 60.2%.

For `O=S(=O)(Nc1ccc2ccccc2n1)N1CCOc2ccccc2C1` [Example 174, N-quinolin-2-yl-23-dihydro-14-benzoxazepine-4(5H)-sulfonamide], at 11β-hsd-1 enzyme [1], the inhibition is 57.9%.

Take `Cc1cc(CC(C)C)nc(N2CCN(S(=O)(=O)Nc3ccc4ccccc4n3)CC2)n1` [Example 175, 4-(4-isobutyl-6-methyl-pyrimidin-2-yl)-N-quinolin-2-ylpiperazine-1-sulfonamide]: the inhibition on 11β-hsd-1 enzyme [1] came out at 50%.

`CC(C)NC(=O)c1ccc(N2CCN(S(=O)(=O)Nc3ccc4ccccc4n3)CC2)nc1` [Example 177, N-isopropyl-6-{4-[(quinolin-2-ylamino)sulfonyl]piperazin-1-yl}nicotinamide]: the inhibition on 11β-hsd-1 enzyme [1] was determined as 59.4%.

Take `Cc1ccc2oc(N3CCN(S(=O)(=O)Nc4ccc5ccccc5n4)CC3)nc2n1` [Example 179, 4-(5-methyl[13]oxazolo[45-b]pyridin-2-yl)-N-quinolin-2-ylpiperazine-1-sulfonamide]: the inhibition on 11β-hsd-1 enzyme [1] is 0%.

Take `CCc1cccc(NS(=O)(=O)N2CCCN(C(=O)OCc3ccccc3)CC2)n1` [Example 182, benzyl 4-{[(6-ethylpyridin-2-yl)amino]sulfonyl}-14-diazepane-1-carboxylate]: the inhibition on 11β-hsd-1 enzyme [1] was 61%.

For the compound `CCc1cccc(NS(=O)(=O)N2CCN(c3cc(C#N)ccn3)CC2)n1` [Example 184, 4-(4-cyanopyridin-2-yl)-N-(6-ethylpyridin-2-yl)piperazine-1-sulfonamide], the inhibition at 11β-hsd-1 enzyme [1] stood at 16.8%.

Regarding `CCc1cccc(NS(=O)(=O)N2CCN(c3nc4cc(OC)ccc4o3)CC2)n1` [Example 185, N-(6-ethylpyridin-2-yl)-4-(5-methoxy-13-benzoxazol-2-yl)piperazine-1-sulfonamide], the inhibition at 11β-hsd-1 enzyme [1] is 48.9%.

For `CCc1cccc(NS(=O)(=O)N2CCN(c3cc(C)nc(C)c3)CC2)n1` [Example 188, 4-(26-dimethylpyridin-4-yl)-N-(6-ethylpyridin-2-yl)piperazine-1-sulfonamide], the inhibition on 11β-hsd-1 enzyme [1] is 5.5%.

Take `CCc1cccc(NS(=O)(=O)N2CCN(c3ccc(C)cc3)C(=O)C2)n1` [Example 189, N-(6-ethylpyridin-2-yl)-4-(4-methylphenyl)-3-oxopiperazine-1-sulfonamide]: on 11β-hsd-1 enzyme [1], the inhibition amounted to 24.9%.

Consider `CCc1cccc(NS(=O)(=O)N2CCc3cc(OC)c(OC)cc3C2)n1` [Example 192, N-(6-ethylpyridin-2-yl)-67-dimethoxy-34-dihydroisoquinoline-2(1H)-sulfonamide], for which the inhibition on 11β-hsd-1 enzyme [1] is 29.4%.

In the case of `CCc1cccc(NS(=O)(=O)N2CCN(c3cnccn3)CC2)n1` [Example 199, N-(6-ethylpyridin-2-yl)-4-pyrazin-2-ylpiperazine-1-sulfonamide], on 11β-hsd-1 enzyme [1], the inhibition was 31.3%.

For `CCc1cccc(NS(=O)(=O)N2Cc3ccccc3C2)n1` [Example 202, N-(6-ethylpyridin-2-yl)-13-dihydro-2H-isoindole-2-sulfonamide], on 11β-hsd-1 enzyme [1], the inhibition is 2.4%.

The values above are taken from patent publication US20070027118A1 (priority 2005, published 2007).
